Data on three compounds can be found in patent US5866576A, “Epoxide-containing compounds” (Cell Therapeutics, Inc., priority 1997, dated 1999).

Where two headings read alike, the source gives them in different places.

One assay deals with lymphocytes. Nature of the assay: mixed lymphocyte reaction (MLR), human lymphocytes (FIG. 12). The format is cell-based. As for the experimental part:
This example illustrates an inhibitive effect of compound no. 1206 in a mixed lymphocyte reaction (MLR). This MNR is used to screen potentially immunosuppressive drugs. Lymphocytes (2×10^5) from normal human donors are grown for 6 days in the presence and absence (control) of inventive compound no. 1206. Tritiated thymidine is added and the lymphocytes grown for a final 6 hours. Incorporation of the tritiated thymidine occurs when the cells are in cell cycle. […] An experimentally determined IC50 value for compound no. 1206 is 70 μM.

The test system of assay [1] is polymorphonuclear leukocytes. The note with it: cited from earlier work; for chemotaxis in polymorphonuclear leukocytes: in response to a stimulator of chemotaxis.
For assay [2], the system named is tumor necrosis factor (TNF) levels. The note with it: cited from earlier work.
In assay [3] the test system is PAPH (phosphatidic acid phosphohydrolase). Put plainly: blocking of PAPH in a specific activation pathway. It counts as cell-based. The note with it: pathway not involving PI; human mesangial cells, TNF. The source says:
The compounds of the invention, include inhibitors of subspecies of LPAAT in PAPH enzymes with substrate specificity for intermediates with 1,2-diunsaturated and 1-alkyl, 2-unsaturated subspecies. One representative example of such an inhibitor (although not within the genus of inventive compounds) is PTX. […] It should be emphasized that the compounds of the invention affect that subset of PAPH and LPAAT that relates to substrates with unsaturated fatty acids other than arachidonate in the sn-2 position, not the housekeeping forms of these enzymes that serve the PI pathway.

The next assay relates to cerebral blood flow. The note with it: in vivo; cited from earlier work.

The term IC50 denotes the concentration at which inhibition is half-maximal. Read a low IC50 as higher potency. Take `Cn1c(=O)c2ccccc2n(CCCCC2CO2)c1=O` (centres unmarked) [Compound 1206, 1-(5,6-Oxidohexyl)-3-methylbenzoyleneurea]: the IC50 in the assay on lymphocytes is 70 µM.
Take `CC(=O)CCCCn1c(=O)c2c(ncn2C)n(C)c1=O` [PTX, 1-(5-oxohexyl)-3,7-dimethylxanthine]: in assay [1], the “activity of certain cytokines to affect chemotaxis” value is on record as “inhibit activity of certain cytokines to affect chemotaxis”. Further, the “chemotaxis in polymorphonuclear leukocytes” value in assay [1] was “stimulate chemotaxis in polymorphonuclear leukocytes”. The TNF levels entry is on record as “TNF levels were higher among PTX recipients” in assay [2] (normal volunteers) and “decrease tumor necrosis factor (TNF) levels” in assay [2] (with GM-CSF, patients undergoing allogeneic bone marrow transplant). Further, in assay [3], the “blocking of PAPH” value is recorded as “blocks PAPH in a specific activation pathway”.
As to `CC(O)CCCCn1c(=O)c2c(ncn2C)n(C)c1=O` (centres unmarked) [Compound M1, 1-(5-hydroxyhexyl)-3,7-dimethylxanthine], the “chemotaxis in polymorphonuclear leukocytes” value in assay [1] was “stimulate chemotaxis in polymorphonuclear leukocytes”. In addition, the cerebral blood flow entry in the assay on cerebral blood flow is “increasing cerebral blood flow”.
